According to patent US9133158B2, “Bicyclic dihydroisoquinoline-1-one derivatives” (Hoffmann-La Roche Inc., priority 2011, dated 2015):

Legend:
[1] = rat; FAD286 after 4 weeks, spironolactone at 4 and 8 weeks of treatment; cited from earlier work
CYP11B2 = CYP11B2 (Homo sapiens, UniProt P19099); settings: patients with primary aldosteronism, oral; cited from earlier work
human CYP11B2 = molecular target: T1, human CYP11B2 (Homo sapiens, UniProt P19099); test: G-402 cellular enzyme assay, human CYP11B2 (aldosterone release, HTRF); type: cell-based; settings: G-402 cells, 1 μM Deoxycorticosterone
T1 construct: expressed in transfected cells
T1 sequence (P19099 25-503): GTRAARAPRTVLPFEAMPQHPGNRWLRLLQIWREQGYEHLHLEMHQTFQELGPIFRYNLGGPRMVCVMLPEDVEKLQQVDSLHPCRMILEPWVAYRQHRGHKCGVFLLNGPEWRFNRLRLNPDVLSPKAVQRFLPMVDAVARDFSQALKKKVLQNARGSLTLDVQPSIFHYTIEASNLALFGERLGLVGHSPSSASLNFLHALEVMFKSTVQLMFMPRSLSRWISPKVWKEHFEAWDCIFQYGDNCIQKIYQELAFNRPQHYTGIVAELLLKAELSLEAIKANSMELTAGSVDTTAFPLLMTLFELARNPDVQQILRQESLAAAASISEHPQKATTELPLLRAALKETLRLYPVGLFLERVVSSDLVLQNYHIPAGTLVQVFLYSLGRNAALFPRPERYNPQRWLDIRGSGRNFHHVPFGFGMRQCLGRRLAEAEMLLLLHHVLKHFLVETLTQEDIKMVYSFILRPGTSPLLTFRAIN
In short: (§1)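 Cellular format in stably transfected G-402 cells over 16 h. HTRF quantified aldosterone (CYP11B2, 1 μM deoxycorticosterone substrate) or cortisol (CYP11B1, 1 μM deoxycortisol substrate); EC50 obtained by fitting a 4-parameter sigmoid to dose–response data.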

human CYP11B1 = molecular target: T2, human CYP11B1 (Homo sapiens, UniProt P15538); test: G-402 cellular enzyme assay, human CYP11B1 (cortisol release, HTRF); type: cell-based; settings: G-402 cells, 1 μM Deoxycortisol
T2 construct: expressed in transfected cells
T2 sequence (P15538 25-503): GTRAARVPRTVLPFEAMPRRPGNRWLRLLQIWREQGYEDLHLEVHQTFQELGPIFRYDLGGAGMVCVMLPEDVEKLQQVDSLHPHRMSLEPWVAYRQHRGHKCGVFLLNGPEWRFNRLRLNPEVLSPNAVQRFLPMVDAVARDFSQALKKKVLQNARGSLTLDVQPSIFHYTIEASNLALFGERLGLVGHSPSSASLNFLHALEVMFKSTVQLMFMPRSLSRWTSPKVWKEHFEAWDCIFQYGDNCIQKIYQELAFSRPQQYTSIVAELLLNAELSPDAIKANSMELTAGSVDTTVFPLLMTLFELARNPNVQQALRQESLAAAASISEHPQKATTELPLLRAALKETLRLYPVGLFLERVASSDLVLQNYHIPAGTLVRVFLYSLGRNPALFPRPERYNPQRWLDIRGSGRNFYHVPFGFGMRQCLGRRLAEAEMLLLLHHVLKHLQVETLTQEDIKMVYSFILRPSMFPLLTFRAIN
In short: as §1

Structure (SMILES) | plasma aldosterone [1] | circulating aldosterone levels (CYP11B2) | EC50 (human CYP11B2) | EC50 (human CYP11B1)
CC(=O)S[C@@H]1CC2=CC(=O)CC[C@]2(C)[C@H]2CC[C@@]3(C)[C@@H](CC[C@@]34CCC(=O)O4)[C@H]12 [spironolactone] | increased | – | – | –
N#Cc1ccc([C@H]2CCc3cncn32)c(F)c1 [LCI699] | – | significantly lower | – | –
N#Cc1ccc([C@H]2CCCc3cncn32)cc1 [FAD286] | reduced | – | – | –
Cc1cc(C)n(Cc2cncc(N3CCc4cc(Cl)ccc4C3=O)c2)n1 [Example 151, 6-Chloro-2-[5-(3,5-dimethyl-pyrazol-1-ylmethyl)-pyridin-3-yl]-3,4-dihydro-2H-isoquinolin-1-one] | – | – | 101 nM | 3920 nM
CCC(=O)N[C@@H]1CCCc2c1cncc2N1C(=O)c2ccc(Cl)cc2[C@H]1CC (single isomer, unassigned) [Example 354, N-[(R or S)-4-((R or S)-5-Chloro-3-ethyl-1-oxo-1,3-dihydro-isoindol-2-yl)-5,6,7,8-tetrahydro-isoquinolin-8-yl]-propionamide] | – | – | 12.2 nM | 345 nM
O=C1c2ccc(Cl)cc2CCN1c1cncc(Cn2ccc3ccc(F)cc32)c1 [Example 184, 6-Chloro-2-[5-(6-fluoro-indol-1-ylmethyl)-pyridin-3-yl]-3,4-dihydro-2H-isoquinolin-1-one] | – | – | 17.7 nM | 271 nM
Cn1ccnc1-c1cncc(N2CCc3cc(Cl)ccc3C2=O)c1 [Example 244, 6-Chloro-2-[5-(1-methyl-1H-imidazol-2-yl)-pyridin-3-yl]-3,4-dihydro-2H-isoquinolin-1-one] | – | – | 1860 nM | 4690 nM
CCC(=O)N[C@H]1CCc2c1cncc2N1C(=O)c2ccc(Cl)cc2[C@@H]1C (single isomer, unassigned) [Example 378, N-[(S or R)-4-((S or R)-5-Chloro-3-methyl-1-oxo-1,3-dihydro-isoindol-2-yl)-6,7-dihydro-5H-[2]pyrindin-7-yl]-propionamide] | – | – | 212 nM | 14600 nM
CCC(=O)N[C@@H]1CCCc2c1cncc2N1C(=O)c2cc(Cl)ccc2[C@H]1CC (single isomer, unassigned) [Example 312, N-[(R or S)-4-((R or S)-5-Chloro-1-ethyl-3-oxo-1,3-dihydro-isoindol-2-yl)-5,6,7,8-tetrahydro-isoquinolin-8-yl]-propionamide] | – | – | 48.2 nM | 4010 nM
CCS(=O)(=O)NC1CCCc2c1cncc2N1Cc2cc(Cl)ccc2C1=O (single isomer, unassigned; (-)) [Example 317, (−)-Ethanesulfonic acid [(S or R)-4-(5-chloro-1-oxo-1,3-dihydro-isoindol-2-yl)-5,6,7,8-tetrahydro-isoquinolin-8-yl]-amide] | – | – | 109 nM | 2640 nM
O=C1c2ccc(Cl)cc2CCN1c1cncc(-c2cccc(C(F)(F)F)c2)c1 [Example 236, 6-Chloro-2-[5-(3-trifluoromethyl-phenyl)-pyridin-3-yl]-3,4-dihydro-2H-isoquinolin-1-one] | – | – | 133 nM | 4390 nM
O=C1c2ccc(Cl)cc2CCN1c1cncc(Cn2nccn2)c1 [Example 174, 6-Chloro-2-(5-[1,2,3]triazol-2-ylmethyl-pyridin-3-yl)-3,4-dihydro-2H-isoquinolin-1-one] | – | – | 25.8 nM | 211 nM
O=C1c2ccc(Cl)cc2CCN1c1cncc(CN2CCC(F)(F)C2)c1 [Example 169, 6-Chloro-2-[5-(3,3-difluoro-pyrrolidin-1-ylmethyl)-pyridin-3-yl]-3,4-dihydro-2H-isoquinolin-1-one] | – | – | 5.2 nM | 38.1 nM
O=C1c2ccc(Cl)cc2CN1c1cncc2c1CCC[C@H]2O [Example 341, 5-Chloro-2-((R)-8-hydroxy-5,6,7,8-tetrahydro-isoquinolin-4-yl)-2,3-dihydro-isoindol-1-one] | – | – | 32.1 nM | 1680 nM
Cc1nncn1Cc1cncc(N2CCc3cc(Cl)ccc3C2=O)c1 [Example 177, 6-Chloro-2-[5-(3-methyl-[1,2,4]triazol-4-ylmethyl)-pyridin-3-yl]-3,4-dihydro-2H-isoquinolin-1-one] | – | – | 412 nM | 6310 nM
Cc1cncc(N2CCc3cc(Cl)ccc3C2=O)c1 [Example 8, 6-Chloro-2-(5-methyl-pyridin-3-yl)-3,4-dihydro-2H-isoquinolin-1-one] | – | – | 44.9 nM | 807 nM
Cc1nccn1Cc1cncc(N2Cc3cc(Cl)ccc3C2=O)c1 [Example 111, 5-Chloro-2-[5-(2-methyl-imidazol-1-ylmethyl)-pyridin-3-yl]-2,3-dihydro-isoindol-1-one] | – | – | 64.2 nM | 923 nM
O=C1c2ccc(Cl)cc2CCN1c1cncc(Br)c1 [Example 7, 2-(5-Bromo-pyridin-3-yl)-6-chloro-3,4-dihydro-2H-isoquinolin-1-one] | – | – | 77.9 nM | 704 nM
CC1c2cc(Cl)ccc2C(=O)N1c1cccnc1 (centres unmarked) [Example 118, 5-Chloro-3-methyl-2-pyridin-3-yl-2,3-dihydro-isoindol-1-one] | – | – | 123 nM | 1250 nM
Nc1cncc(N2CCc3cc(Cl)ccc3C2=O)c1 [Example 17, 2-(5-Aminopyridin-3-yl)-6-chloro-3,4-dihydro-2H-isoquinolin-1-one] | – | – | 597 nM | 14000 nM
COC(=O)[C@@H]1CCCN1Cc1cncc(N2CCc3cc(Cl)ccc3C2=O)c1 [Example 84, (S)-1-[5-(6-Chloro-1-oxo-3,4-dihydro-1H-isoquinolin-2-yl)-pyridin-3-ylmethyl]-pyrrolidine-2-carboxylic acid methyl ester] | – | – | 225 nM | 4830 nM
O=C1c2ccc(Cl)cc2CCN1c1cncc(NCC(F)(F)F)c1 [Example 223, 6-Chloro-2-[5-(2,2,2-trifluoro-ethylamino)-pyridin-3-yl]-3,4-dihydro-2H-isoquinolin-1-one] | – | – | 116 nM | 1420 nM
C[C@H]1Cc2cc(Cl)ccc2C(=O)N1c1cccnc1 [Example 92, (S)-6-Chloro-3-methyl-2-pyridin-3-yl-3,4-dihydro-2H-isoquinolin-1-one] | – | – | 268 nM | 11400 nM
CC(C)N1CCN(Cc2cncc(N3CCc4cc(Cl)ccc4C3=O)c2)CC1 [Example 166, 6-Chloro-2-[5-(4-isopropyl-piperazin-1-ylmethyl)-pyridin-3-yl]-3,4-dihydro-2H-isoquinolin-1-one] | – | – | 14.1 nM | 96.3 nM
NC1CCCc2c1cncc2N1Cc2cc(Cl)ccc2C1=O (centres unmarked) [Example 311, 2-(8-Amino-5,6,7,8-tetrahydro-isoquinolin-4-yl)-5-chloro-2,3-dihydro-isoindol-1-one] | – | – | 813 nM | 6480 nM
CCC1c2ccc(Cl)cc2C(=O)N1c1cncc(CNS(C)(=O)=O)c1 (single isomer, unassigned) [Example 407, N-[5-((R or S)-5-Chloro-1-ethyl-3-oxo-1,3-dihydro-isoindol-2-yl)-pyridin-3-ylmethyl]-methane-sulfonamide] | – | – | 987 nM | 20700 nM
Cc1n[nH]c(C)c1-c1cncc(N2CCc3cc(Cl)ccc3C2=O)c1 [Example 79, 6-Chloro-2-[5-(3,5-dimethyl-1H-pyrazol-4-yl)-pyridin-3-yl]-3,4-dihydro-2H-isoquinolin-1-one] | – | – | 5.1 nM | 34 nM
O=C1c2ccc(Cl)cc2CCN1c1cncc(N2CCOCC2)c1 [Example 224, 6-Chloro-2-(5-morpholin-4-yl-pyridin-3-yl)-3,4-dihydro-2H-isoquinolin-1-one] | – | – | 37.2 nM | 293 nM
